Assays:
Assay type in all cases: physicochemical
[1] = Dynamic vapour sorption (DVS)
Protocol: Approximately 10-20 mg of sample was placed into a mesh vapour sorption balance pan and loaded into an Intrinsic dynamic vapour sorption balance by Surface Measurement Systems. The sample was subjected to a ramping profile from 40-90% relative humidity (RH) at 10% increments, maintaining the sample at each step until a stable weight had been achieved (dm/dt 0.004%, minimum step length 30 minutes, maximum step length 500 minutes) at 25° C. After completion of the sorption cycle, the sample was dried using the same procedure to 0% RH and then a second sorption cycle back to 40% RH. Two cycles were performed. The weight change during the sorption/desorption cycles were plotted, allowing for the hygroscopic nature of the sample to be determined. XRPD analysis was then carried out on any solid retained.

[2] = Solubility assessment in unbuffered water and pH buffers; conditions: thermodynamic from solid
Protocol: 100 μL of the appropriate buffer was added to form a slurry.

[3] = 7-day stability tests of the salt (XRPD, HPLC purity); conditions: 50° C., 80° C. and ambient light
Protocol: 7-day stability tests were carried out as follows: 15 mg of salt was weighed into x3 2 mL vials. The vials were then placed at 40° C./75% RH, 80° C. and under ambient light; after 1 week, the solids were analysed by XRPD and HPLC purity (method A).

[4] = Storage stability of free base, di-sulphate salt and its aqueous solutions (background); conditions: for stability of aqueous solution: glass vials, no preservative
[5] = Polymorphic form stability of di-sulphate salt upon drying at 50° C.
[6] = Water solubility of di-sulphate salt (background)

In the case of CC(C)CN(CCCN1CCN(CCCNc2nc3ccccc3[nH]2)CC1)CC(C)C.O=C(O)CCC(=O)O.O=C(O)CCC(=O)O.O=C(O)CCC(=O)O [tris-succinate salt Form 2, N-(3-(4-(3-(diisobutylamino)propyl)piperazin-1-yl)propyl)-1H-benzo[d]imidazol-2-amine tris-succinate salt], the “Post-DVS XRPD crystalline form” value ([1]; after DVS cycle) is reported as “remain as tris-succinate salt Form 2”, the DVS weight uptake ([1]; at 70% RH, 25° C.) is reported as “ca. +0.1 wt. %” and the “DVS water uptake in equivalents” value ([1]; up to 90% RH) is reported as “approximately 4.3 equiv. water”. For the same molecule, the DVS weight increase ([1]; up to 90% RH, 25° C.) was “ca. +9.92 wt. %”, the hygroscopicity ([1]; up to 90% relative humidity) was “not hygroscopic” and the solubility ([2]; pH 1.2, simulated gastric fluid) was greater than 123 mg/mL. The solubility ([2]; pH 4.5, aqueous buffer) was greater than 92.4 mg/mL, the solubility ([2]; pH 6.8, aqueous buffer) was greater than 95.7 mg/mL and the 7-day stability [3] was “stable”.
In the case of CC(C)CN(CCCN1CCN(CCCNc2nc3ccccc3[nH]2)CC1)CC(C)C [free base, N-(3-(4-(3-(diisobutylamino)propyl)piperazin-1-yl)propyl)-1H-benzo[d]imidazol-2-amine], the long term stability [4] is reported as “long term stability issues due to oxidative degradation”.
With CC(C)CN(CCCN1CCN(CCCNc2nc3ccccc3[nH]2)CC1)CC(C)C.O=S(=O)(O)O.O=S(=O)(O)O [Form B, N-(3-(4-(3-(diisobutylamino)propyl)piperazin-1-yl)propyl)-1H-benzo[d]imidazol-2-amine di-sulphate] the “crystalline form stability upon drying” value ([5]; di-sulphate) was “partially loses its crystallinity”.
With CC(C)CN(CCCN1CCN(CCCNc2nc3ccccc3[nH]2)CC1)CC(C)C.O=S(=O)(O)O.O=S(=O)(O)O [Form A, N-(3-(4-(3-(diisobutylamino)propyl)piperazin-1-yl)propyl)-1H-benzo[d]imidazol-2-amine di-sulphate salt] the “crystalline form stability upon drying” value ([5]; di-sulphate salt) was “converts back to polymorphic Form B”.
With CC(C)CN(CCCN1CCN(CCCNc2nc3ccccc3[nH]2)CC1)CC(C)C.O=S(=O)(O)O.O=S(=O)(O)O [di-sulphate salt, N-(3-(4-(3-(diisobutylamino)propyl)piperazin-1-yl)propyl)-1H-benzo[d]imidazol-2-amine di-sulphate] the “stability of aqueous solution” value ([4]; 5° C.) was “up to 18 months”, the “stability to regular storage conditions” value ([4]; 15-25° C.) was “at least 5 years” and the “stability of aqueous solution” value ([4]; 25° C./60% RH) was “up to 18 months”. For the same molecule, the “stability of aqueous solution” value ([4]; 40° C./75% RH) was “up to 6 months” and the solubility [6] was greater than 100 mg/mL.

— US20230391729A1, “SUCCINATE SALTS OF N-(3-(4-(3-(DIISOBUTYLAMINO)PROPYL)PIPERAZIN-1-YL)PROPYL)-1H-BENZO[D]IMIDAZOL-2-AMINE, PREPARATION THEREOF AND USE OF THE SAME” (ALZPROTECT, priority 2020, published 2023)
